Measurements as given in ChEMBL document CHEMBL1201862, “PubChem BioAssay data set” (2004).
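Briefly, cells in 96-well plates were exposed to five compound concentrations for 48 h, and endpoints were estimated by linear interpolation. Here, GI50 denotes the concentration required for 50% inhibition of growth.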 Calls of active or inactive are those of the source. No stated cut-off is given here; in the data, active = GI50 up to about 1.1 µM and inactive = higher.

Key:
Experiment in all cases: growth of human tumour cells (NCI), 48 h
[1] = tested on: Malme-3M
[2] = tested on: MOLT-4
[3] = tested on: U-251
[4] = tested on: OVCAR-4
[5] = tested on: HOP-62
[6] = tested on: HT-29
[7] = tested on: HL-60
[8] = tested on: SK-MEL-28
[9] = tested on: OVCAR-3
[10] = tested on: NCI-H460
[11] = tested on: K562
[12] = tested on: SK-MEL-2
[13] = tested on: CAKI-1
[14] = tested on: M19-MEL
[15] = tested on: 786-0
[16] = tested on: SNB-75
[17] = tested on: MDA-N
[18] = tested on: PC-3
[19] = tested on: BT-549
[20] = tested on: NCI/ADR-RES

Row | Structure (SMILES) | GI50 [1] | GI50 [2] | GI50 [3] | GI50 [4] | GI50 [5] | GI50 [6] | GI50 [7] | GI50 [8] | GI50 [9] | GI50 [10] | GI50 [11] | GI50 [12] | GI50 [13] | GI50 [14] | GI50 [15] | GI50 [16] | GI50 [17] | GI50 [18] | GI50 [19] | GI50 [20]
1 | COc1cc2c3c(c1OC)C(=O)C=C3N(S(=O)(=O)c1ccc(C)cc1)CC2 | > 100 µM (inactive) | > 100 µM (inactive) | 84.5 µM (inactive) | 65.8 µM (inactive) | 64.3 µM (inactive) | > 100 µM (inactive) | > 100 µM (inactive) | > 100 µM (inactive) | > 100 µM (inactive) | > 100 µM (inactive) | > 100 µM (inactive) | > 100 µM (inactive) | 52.6 µM (inactive) | > 100 µM (inactive) | 21.3 µM (inactive) | 46.9 µM (inactive) | – | – | – | –
2 | Cc1ccc(NC(=O)CCc2nnc(N)o2)cc1 | > 100 µM (inactive) | > 100 µM (inactive) | > 100 µM (inactive) | > 100 µM (inactive) | > 100 µM (inactive) | > 100 µM (inactive) | > 67.3 µM (inactive) | > 100 µM (inactive) | > 100 µM (inactive) | > 100 µM (inactive) | > 75.7 µM (inactive) | > 100 µM (inactive) | > 100 µM (inactive) | > 100 µM (inactive) | > 100 µM (inactive) | > 100 µM (inactive) | – | – | – | –
3 | Cc1ccc(S(=O)(=O)ON/N=C2/C3OC3[C@@H]3CCCC[C@H]23)cc1 (stereo partly drawn) | > 100 µM (inactive) | > 100 µM (inactive) | > 100 µM (inactive) | > 100 µM (inactive) | > 100 µM (inactive) | > 100 µM (inactive) | > 100 µM (inactive) | > 100 µM (inactive) | > 100 µM (inactive) | > 100 µM (inactive) | > 100 µM (inactive) | > 100 µM (inactive) | > 100 µM (inactive) | > 100 µM (inactive) | > 100 µM (inactive) | > 100 µM (inactive) | – | – | – | –
4 | CCOC(=O)C1=C(O)C(=O)c2cc(OC)ccc2C1=O | > 100 µM (inactive) | > 100 µM (inactive) | > 100 µM (inactive) | > 100 µM (inactive) | > 100 µM (inactive) | > 100 µM (inactive) | > 100 µM (inactive) | > 100 µM (inactive) | > 100 µM (inactive) | > 100 µM (inactive) | > 100 µM (inactive) | > 100 µM (inactive) | > 100 µM (inactive) | 20.7 µM (inactive) | > 100 µM (inactive) | 20.9 µM (inactive) | – | – | – | –
5 | CC(=O)Nc1ccc(C(=O)NN2C(=O)C(Cl)C2c2ccc([N+](=O)[O-])cc2)cc1 (stereo not drawn) | > 100 µM (inactive) | > 100 µM (inactive) | > 100 µM (inactive) | > 100 µM (inactive) | > 100 µM (inactive) | > 100 µM (inactive) | > 100 µM (inactive) | > 100 µM (inactive) | > 100 µM (inactive) | > 100 µM (inactive) | > 100 µM (inactive) | > 100 µM (inactive) | > 100 µM (inactive) | > 100 µM (inactive) | > 100 µM (inactive) | > 100 µM (inactive) | – | – | – | –
6 | COc1ccc(/C(Cl)=C(\C=O)c2ccc(Br)cc2)cc1OC | 47.8 µM (inactive) | 4.27 µM (inactive) | 32.8 µM (inactive) | > 100 µM (inactive) | 34.8 µM (inactive) | > 100 µM (inactive) | 17 µM (inactive) | > 100 µM (inactive) | > 100 µM (inactive) | > 68.9 µM (inactive) | > 61 µM (inactive) | 16.5 µM (inactive) | > 100 µM (inactive) | > 100 µM (inactive) | 27.7 µM (inactive) | 2.81 µM (inactive) | – | – | – | –
7 | C=C(CN(C)C)C(=O)c1ccc(C)cc1C | 5.7 µM (inactive) | 1.01 µM (active) | 16.9 µM (inactive) | 9.86 µM (inactive) | 32.2 µM (inactive) | 7.66 µM (inactive) | 0.46 µM (active) | 6.1 µM (inactive) | 7.87 µM (inactive) | 18.8 µM (inactive) | 1.15 µM (inactive) | 18 µM (inactive) | 3.09 µM (inactive) | 18.7 µM (inactive) | 5.19 µM (inactive) | 16.5 µM (inactive) | 4.55 µM (inactive) | 14.1 µM (inactive) | 3.59 µM (inactive) | 7 µM (inactive)
8 | Cc1c(C(=O)c2ccccc2C(=O)O)c2ccccc2n1C | > 100 µM (inactive) | > 100 µM (inactive) | > 100 µM (inactive) | > 100 µM (inactive) | > 100 µM (inactive) | > 100 µM (inactive) | > 100 µM (inactive) | > 100 µM (inactive) | > 100 µM (inactive) | > 100 µM (inactive) | > 100 µM (inactive) | > 100 µM (inactive) | > 100 µM (inactive) | > 100 µM (inactive) | > 100 µM (inactive) | > 100 µM (inactive) | – | – | – | –
9 | C[C@H]1[C@H](C)CC[C@]2(C(=O)O)CCC3(COC(=O)/C=C/c4ccc(O)cc4)C(=CCC4[C@@]5(C)CC[C@H](O)C(C)(C)C5CC[C@]43C)[C@H]12 (stereo partly drawn) | 19.3 µM (inactive) | 3.52 µM (inactive) | 2.33 µM (inactive) | 5.96 µM (inactive) | 7.82 µM (inactive) | 6.12 µM (inactive) | 7.96 µM (inactive) | 10.8 µM (inactive) | 4.8 µM (inactive) | 3.09 µM (inactive) | 2.86 µM (inactive) | 19.1 µM (inactive) | 2.85 µM (inactive) | 22.3 µM (inactive) | 5.16 µM (inactive) | 10.2 µM (inactive) | – | – | – | –
10 | C/C(=N\NC(=S)N1CCCCCC1)c1ccccn1 | 0.0316 µM (active) | 0.00676 µM (active) | 0.00522 µM (active) | 0.185 µM (active) | 0.075 µM (active) | < 0.001 µM (active) | 0.0021 µM (active) | 1.18 µM (inactive) | < 0.001 µM (active) | 0.0164 µM (active) | 0.00288 µM (active) | 0.132 µM (active) | 0.0162 µM (active) | 0.0883 µM (active) | 0.0352 µM (active) | 0.0692 µM (active) | 0.42 µM (active) | 0.011 µM (active) | 0.17 µM (active) | 0.01 µM (active)
